Assay [1] deals with MDA-MB-231. In words: Cytotoxicity against human MDA-MB-231 cells after 48 hrs by MTT assay. In kind it is functional, cell-based.
In a further assay the test system is MCF7. Briefly: Cytotoxicity against human MCF7 cells after 48 hrs by MTT assay. In kind it is functional, cell-based. For orientation: Formazan colour is commonly taken as a measure of viable cells.
The subject of a further assay is MRC5. Briefly: Cytotoxicity against human MRC5 cells after 48 hrs by MTT assay. Type of assay: cell-based.
In another assay the test system is A549. In words: Cytotoxicity against human A549 cells after 48 hrs by MTT assay. Type of assay: functional, cell-based.
The next assay concerns HeLa. In words: Cytotoxicity against human HeLa cells after 48 hrs by MTT assay. Type of assay: functional, cell-based.
Assay [2] deals with HT-29. Briefly: Cytotoxicity against human HT-29 cells after 48 hrs by MTT assay. In kind it is functional, cell-based.
The subject of assay [3] is HT-29. In words: Induction of cytotoxic response in human HT-29 cells after 48 hrs by MTT assay. Type of assay: functional.
The test system of assay [4] is MDA-MB-231. In words: Induction of cytotoxic response in human MDA-MB-231 cells after 48 hrs by MTT assay. In kind it is functional.

SMILES strings stand for the structures.

The IC50 is the midpoint of a concentration-inhibition curve. `C[C@@]1(O)CS[C@@H](n2ccc(N)nc2=O)[C@@H]1O` [listing 1 of 2 here]: the IC50 worked out at 10 µM in the assay with MDA-MB-231 [1] (mda-mb-231); 139 µM with MCF7 (mcf7); 147 µM in the assay with MRC5 (mrc5); 9 µM in the assay with A549 (a549); 17 µM in the assay on HeLa (hela); 6400 µM with HT-29 [2] (ht-29).
As to `Cc1cn([C@@H]2SC[C@@](C)(O)[C@H]2O)c(=O)[nH]c1=O`, the Activity stood at 62% with HT-29 [3] and 57% in the assay with MDA-MB-231 [4]. For the same molecule, the IC50 with MDA-MB-231 [1] (Homo sapiens, MDA-MB-231, 48 h) was 3 µM; with MCF7 (Homo sapiens, MCF7, 48 h) it was 323 µM; in the assay on MRC5 (Homo sapiens, MRC5, 48 h) it was 269 µM; in the assay with A549 (Homo sapiens, A549, 48 h), 41 µM; in the assay with HeLa (Homo sapiens, HeLa, 48 h), 214 µM; in the assay with HT-29 [2] (Homo sapiens, HT-29, 48 h) it was 5 µM.
On to `Cc1cn([C@H]2SC[C@](C)(O)[C@@H]2O)c(=O)[nH]c1=O`, for which the IC50 in the assay on MDA-MB-231 [1] (Homo sapiens, MDA-MB-231, 48 h) was 52 µM; in the assay on MCF7 (Homo sapiens, MCF7, 48 h), 172 µM; with MRC5 (Homo sapiens, MRC5, 48 h), 290 µM; with A549 (Homo sapiens, A549, 48 h), 30 µM; in the assay on HeLa (Homo sapiens, HeLa, 48 h) it was 6870 µM; with HT-29 [2] (Homo sapiens, HT-29, 48 h), 640 µM.
For `C[C@@]1(O)CS[C@@H](n2ccc(=O)[nH]c2=O)[C@@H]1O`, the IC50 with MDA-MB-231 [1] (Homo sapiens, MDA-MB-231, 48 h) turned out to be 19 µM; with MCF7 (Homo sapiens, MCF7, 48 h) it was 193 µM; in the assay with MRC5 (Homo sapiens, MRC5, 48 h) it was 630 µM; in the assay with A549 (Homo sapiens, A549, 48 h), 4270 µM; in the assay on HeLa (Homo sapiens, HeLa, 48 h) it was 214 µM; with HT-29 [2] (Homo sapiens, HT-29, 48 h), 8 µM.
For `C[C@]1(O)CS[C@H](n2ccc(=O)[nH]c2=O)[C@H]1O`, the half-inhibitory concentration (IC50) with MDA-MB-231 [1] (Homo sapiens, MDA-MB-231, 48 h) was determined as 14 µM; with MCF7 (Homo sapiens, MCF7, 48 h) it was 100 µM; in the assay on MRC5 (Homo sapiens, MRC5, 48 h) it was 1000 µM; in the assay with A549 (Homo sapiens, A549, 48 h), 30 µM; in the assay on HeLa (Homo sapiens, HeLa, 48 h), 4320 µM; with HT-29 [2] (Homo sapiens, HT-29, 48 h) it was 269 µM.
Regarding `C[C@]1(O)CS[C@H](n2ccc(N)nc2=O)[C@H]1O`, the IC50 turned out to be 11 µM in the assay on MDA-MB-231 [1] (Homo sapiens, MDA-MB-231, 48 h); 13 µM with MCF7 (Homo sapiens, MCF7, 48 h); 221 µM in the assay on MRC5 (Homo sapiens, MRC5, 48 h); 223 µM with A549 (Homo sapiens, A549, 48 h); 12 µM in the assay on HeLa (Homo sapiens, HeLa, 48 h); 5990 µM in the assay with HT-29 [2] (Homo sapiens, HT-29, 48 h).
Take `C[C@@]1(O)CS[C@@H](n2ccc(N)nc2=O)[C@@H]1O` [listing 2 of 2 here]: the IC50 in the assay on MDA-MB-231 [1] (mda-mb-231) came out at 58 µM; with MCF7 (mcf7), 1980 µM; in the assay with MRC5 (mrc5), 4340 µM; in the assay with A549 (a549), 1320 µM; in the assay on HeLa (hela), 106 µM; in the assay with HT-29 [2] (ht-29) it was 2270 µM.

These data come from ChEMBL document CHEMBL2384976, “Synthesis and cytotoxic evaluation of novel pyrimidine deoxyapiothionucleosides” (Bioorg Med Chem Lett, 2013).
